Blank lines part the entries; values can stand above or below the compound they belong to.
Key:
[1] = Solubility of the compound in FaSSIF at pH 6.6; type: physicochemical
[2] = Solubility of the compound in FeSSIF at pH 5.1; type: physicochemical
[3] = target: T1, Sodium-dependent phosphate transport protein 2B (Homo sapiens, UniProt O95436); test: Inhibition of human NaPi2b
T1 sequence (O95436 whole entry): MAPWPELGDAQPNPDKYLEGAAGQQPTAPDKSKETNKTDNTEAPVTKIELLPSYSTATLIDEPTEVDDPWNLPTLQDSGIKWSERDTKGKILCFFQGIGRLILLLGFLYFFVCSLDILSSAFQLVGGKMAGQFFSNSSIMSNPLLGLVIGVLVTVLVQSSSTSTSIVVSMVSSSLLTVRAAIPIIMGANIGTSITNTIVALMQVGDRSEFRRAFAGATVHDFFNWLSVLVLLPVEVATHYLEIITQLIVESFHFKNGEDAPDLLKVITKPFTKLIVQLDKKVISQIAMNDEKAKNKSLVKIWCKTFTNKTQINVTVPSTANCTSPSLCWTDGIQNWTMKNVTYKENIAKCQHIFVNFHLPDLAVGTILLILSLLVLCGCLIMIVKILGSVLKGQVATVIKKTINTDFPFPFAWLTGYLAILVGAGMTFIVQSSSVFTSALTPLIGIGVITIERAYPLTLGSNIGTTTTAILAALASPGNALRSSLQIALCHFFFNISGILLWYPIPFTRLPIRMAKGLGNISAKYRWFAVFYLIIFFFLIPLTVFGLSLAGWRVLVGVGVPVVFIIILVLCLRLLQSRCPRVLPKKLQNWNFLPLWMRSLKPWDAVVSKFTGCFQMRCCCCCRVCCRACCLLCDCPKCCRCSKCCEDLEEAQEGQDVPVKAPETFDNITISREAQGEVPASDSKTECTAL

[4] = Oral bioavailability in fasted Sprague-Dawley rat at 10 mg/kg; type: ADME, organism-based; conditions: in vivo; for bioavailability: Sprague-Dawley
[5] = AUC (0 to t) in fasted Sprague-Dawley rat at 10 mg/kg, po; type: ADME, organism-based; set-up: dose 10 mg/kg, route po; conditions: in vivo; for AUC(0-t): Sprague-Dawley
[6] = Drug concentration in Sprague-Dawley rat intestine at 10 mg/kg, po relative to intestine volume; type: ADME, organism-based; conditions: in vivo
[7] = target: T2, Sodium-dependent phosphate transport protein 2B (Rattus norvegicus, UniProt Q9JJ09); test: Inhibition of rat NaPi2b
T2 sequence (Q9JJ09 whole entry): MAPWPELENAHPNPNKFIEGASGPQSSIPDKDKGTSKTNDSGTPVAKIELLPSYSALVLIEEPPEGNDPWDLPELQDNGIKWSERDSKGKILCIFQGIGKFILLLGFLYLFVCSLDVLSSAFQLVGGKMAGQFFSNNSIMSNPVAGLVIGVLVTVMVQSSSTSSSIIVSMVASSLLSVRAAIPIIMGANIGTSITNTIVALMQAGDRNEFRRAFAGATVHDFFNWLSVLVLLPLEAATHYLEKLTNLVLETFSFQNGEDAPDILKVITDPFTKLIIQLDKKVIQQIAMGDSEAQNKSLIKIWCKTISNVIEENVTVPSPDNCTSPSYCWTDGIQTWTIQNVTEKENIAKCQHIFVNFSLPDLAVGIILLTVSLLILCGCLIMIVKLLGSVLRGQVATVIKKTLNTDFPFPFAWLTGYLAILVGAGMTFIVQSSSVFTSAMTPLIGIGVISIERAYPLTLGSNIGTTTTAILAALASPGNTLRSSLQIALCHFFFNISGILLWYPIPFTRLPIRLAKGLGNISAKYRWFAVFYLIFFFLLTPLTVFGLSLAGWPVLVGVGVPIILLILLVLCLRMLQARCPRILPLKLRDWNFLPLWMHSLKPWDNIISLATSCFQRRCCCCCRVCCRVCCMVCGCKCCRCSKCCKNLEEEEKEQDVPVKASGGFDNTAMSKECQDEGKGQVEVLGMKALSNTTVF

[8] = Drug excretion in fasted Sprague-Dawley rat feces at 10 mg/kg, po measured after 24 hrs; type: ADME, organism-based; conditions: faeces, read-out: Drug excretion
[9] = Drug concentration in Sprague-Dawley rat intestine at 10 mg/kg, po relative to excretion rate; type: ADME, organism-based; conditions: in vivo
[10] = AUC (0 to t) in fasted Sprague-Dawley rat at 1 mg/kg, iv; type: ADME, organism-based; set-up: dose 1 mg/kg, route iv; conditions: in vivo; for AUC(0-t): Sprague-Dawley
[11] = Cmax in fasted Sprague-Dawley rat at 10 mg/kg, po; type: ADME, organism-based; set-up: dose 10 mg/kg, route po; conditions: in vivo

SMILES: CCC(CC)N(CCN(C)C(=O)CCC(=O)O)S(=O)(=O)c1cccc(C(=O)Nc2sc3c(c2C(=O)c2cnn(-c4ccc(Cl)c(C(F)(F)F)c4)c2)CCC(C)(C)C3)c1
- IC50 [3]: 39 nM

SMILES: CCC(CC)N(CCN(C)C(=O)CCC(=O)O)Cc1cccc(C(=O)Nc2sc3c(c2C(=O)c2cnn(-c4ccc(Cl)cc4)c2)CCN(S(C)(=O)=O)C3)c1
- IC50 [3]: 2490 nM

SMILES: CCC(CC)N(CCN(C)C(=O)CCC(=O)O)Cc1cccc(C(=O)Nc2sc3c(c2C(=O)c2cnn(Cc4nnc[nH]4)c2)CCC(C)(C)C3)c1
- IC50 [3]: > 1000 nM

SMILES: CCC(CC)N(CCN(C)C(=O)CCC(=O)O)Cc1cccc(C(=O)Nc2sc3c(c2C(=O)c2cnn(-c4ccc(Cl)cc4)c2)CCN(C2CC2)C3)c1
- IC50 [3]: 80 nM

SMILES: CCC(CC)N(CCN(C)C(=O)CCC(=O)O)Cc1cccc(C(=O)Nc2sc3c(c2C(=O)c2cnn(Cc4cccc(C(=O)O)c4)c2)CCC(C)(C)C3)c1
- IC50 [3]: > 1000 nM

SMILES: CCC(CC)N(CCN(C)C(=O)CCC(=O)O)Cc1cccc(C(=O)Nc2sc3c(c2C(=O)c2cnn(-c4cccc(C(=O)O)c4)c2)CCC(C)(C)C3)c1
- IC50 [3]: > 1000 nM

SMILES: CCC(CC)N(CCN(C)C(=O)CCC(=O)O)Cc1cccc(C(=O)Nc2sc3c(c2C(=O)c2cnn(-c4ccc(Cl)cc4)c2)CCCC3)c1
- IC50 [3]: 118 nM

SMILES: CCC(CC)N(CCN(C)C(=O)CCC(=O)O)Cc1cccc(C(=O)Nc2sc3c(c2C(=O)c2cnn(-c4ccc(C(=O)O)cc4)c2)CCC(C)(C)C3)c1
- IC50 [3]: > 1000 nM

SMILES: CCN([C@H]1CC[C@H](C(=O)O)CC1)S(=O)(=O)c1cccc(C(=O)Nc2sc3c(c2C(=O)c2cnn(-c4ccc(Cl)c(C(F)(F)F)c4)c2)CCC(C)(C)C3)c1
- IC50 [3]: 42 nM

SMILES: CC1(C)CCc2c(sc(NC(=O)c3cccc(OCCOCCOCCOCCOCCOCCO)c3)c2C(=O)c2cnn(-c3ccc(Cl)c(C(F)(F)F)c3)c2)C1
- IC50 [3]: 170 nM

SMILES: CCC(CC)N(CCN(C)C(=O)CCC(=O)O)Cc1cccc(C(=O)Nc2sc3c(c2C(=O)c2cnn(Cc4ccccc4)c2)CCC(C)(C)C3)c1
- IC50 [3]: 179 nM

SMILES: CCC(CC)N(CCN(C)C(=O)CCC(=O)O)Cc1cccc(C(=O)Nc2sc3c(c2C(=O)c2cnn(-c4ccc(Cl)cc4)c2)CCOC3)c1
- IC50 [3]: 437 nM

SMILES: CCC(CC)N(CCN(C)C(=O)CCC(=O)O)Cc1cccc(C(=O)Nc2sc3c(c2C(=O)c2cnn(-c4ccc(Cl)cc4)c2)CCC(C)(C)C3)c1
- IC50 [3]: 36 nM

SMILES: CCC(CC)N(CCN(C)C(=O)CCC(=O)O)Cc1cccc(C(=O)Nc2sc3c(c2C(=O)c2cnn(Cc4ccc(C(=O)O)cc4)c2)CCC(C)(C)C3)c1
- IC50 [3]: > 1000 nM

SMILES: CCC(CC)N(CCN(C)C(=O)CCC(=O)O)Cc1cccc(C(=O)Nc2sc3c(c2C(=O)c2cnn(-c4ccc(Cl)cc4)c2)CCN(C(C)=O)C3)c1
- IC50 [3]: > 1000 nM

SMILES: CCC(CC)N(CCN(C)C(=O)CCC(=O)O)Cc1cccc(C(=O)Nc2sc3c(c2C(=O)c2cnn(-c4ccc(Cl)cc4)c2)CCSC3)c1
- IC50 [3]: 713 nM

Results, then the compound that gave them:

- solubility [1]: 242 µg/mL
- solubility [2]: > 434 µg/mL
SMILES: CCC(CC)N(CCN(C)C(=O)CCC(=O)NC(C)(C)C(=O)NCCN(C)C)Cc1cccc(C(=O)Nc2sc3c(c2C(=O)c2cnn(-c4ccc(Cl)c(C(F)(F)F)c4)c2)CCC(C)(C)C3)c1.Cl

- bioavailability [4]: 0.2%
- AUC(0-t) [5]: 32.3 ng·h/mL
- Ct [6]: 58 µg/mL
- IC50 [7]: 2.1 nM
- dose excreted at 24 h [8]: 61.7%
- Ct [9]: 36 µg/mL
- AUC(0-t) [10]: 1570 ng·h/mL
- Cmax [11]: 28.1 ng/mL
- IC50 [3]: 15 nM
SMILES: CCC(CC)N(CCN(C)C(=O)CCC(=O)NCCOCCOCCOCCO)Cc1cccc(C(=O)Nc2sc3c(c2C(=O)c2cnn(-c4ccc(Cl)c(C(F)(F)F)c4)c2)CCC(C)(C)C3)c1

- solubility [1]: 107 µg/mL
- solubility [2]: > 384 µg/mL
SMILES: CCC(CC)N(CCN(C)C(=O)CCC(=O)NCCOCCOCCOCCO)Cc1cccc(C(=O)Nc2sc3c(c2C(=O)c2cnn(-c4ccc(Cl)c(C(F)(F)F)c4)c2)CCC(C)(C)C3)c1.Cl

- IC50 [3]: 46 nM
SMILES: CCC(CC)N(CCN(C)C(=O)CCC(=O)O)Cc1cccc(C(=O)Nc2sc3c(c2C(=O)c2cnn(-c4cccc(C(F)(F)F)c4)c2)CCC(C)(C)C3)c1

- bioavailability [4]: 7.1%
- AUC(0-t) [5]: 2190 ng·h/mL
- AUC(0-t) [10]: 3070 ng·h/mL
- Cmax [11]: 625 ng/mL
- IC50 [3]: 38 nM
SMILES: CCC(CC)N(CCN(C)C(=O)CCC(=O)O)Cc1cccc(C(=O)Nc2sc3c(c2C(=O)c2cnn(-c4ccc(Cl)c(C(F)(F)F)c4)c2)CCC(C)(C)C3)c1

- F ([4]; po, 10 mg/kg): 0.6%
- AUCt [5]: 15.3 ng·h/mL
- Ct [6]: 58 µg/mL
- IC50 [7]: 7.6 nM
- dose excreted at 24 h [8]: 76.8%
- Ct [9]: 45 µg/mL
- AUCt [10]: 2580 ng·h/mL
- Cmax [11]: 15.3 ng/mL
- IC50 [3]: 48 nM
SMILES: CCC(CC)N(CCN(C)C(=O)CCC(=O)NC(C)(C)C(=O)NCCN(C)C)Cc1cccc(C(=O)Nc2sc3c(c2C(=O)c2cnn(-c4ccc(Cl)c(C(F)(F)F)c4)c2)CCC(C)(C)C3)c1

- IC50 [3]: 87 nM
SMILES: CCC(CC)N(CCN(C)C(=O)CCC(=O)N(C)C[C@H](O)[C@@H](O)[C@@H](O)[C@H](O)CO)Cc1cccc(C(=O)Nc2sc3c(c2C(=O)c2cnn(-c4ccc(Cl)c(C(F)(F)F)c4)c2)CCC(C)(C)C3)c1

Source: ChEMBL document CHEMBL5131457, “Design, synthesis and biological evaluation of novel 1H-pyrazole-4-carbonyl-4,5,6,7-tetrahydrobenzo [b]thiophene derivatives as gut-selective NaPi2b inhibitors” (Bioorg Med Chem Lett, 2022)
